We go through 12 compounds from patent US20250140406A1, “CLASSIFYING TUMORS AND PREDICTING RESPONSIVENESS” (Oncocyte Corporation, priority 2022, published 2025).

The structures appear in SMILES notation.

Test [1] concerns cancer cell lines classified IM, MSL, M. As to the kind of experiment: PRISM screen compound sensitivity correlated with IM, MSL and M subtype of cell lines (101 gene signature). It counts as cell-based. The settings on record: for IM Corr test: correlation of PRISM compound sensitivity with IM subtype correlation; for M Corr test: correlation of PRISM compound sensitivity with M subtype correlation; for MSL Corr test: correlation of PRISM compound sensitivity with MSL subtype correlation.

Test [2] relates to cancer cell lines, DetermaIO classes. As to the kind of experiment: Association of PRISM compound sensitivity with DetermaIO (DTIO) cell line classes. It counts as cell-based.
[3] abbreviates: classification of association of compound sensitivity with IM, MSL and M cell line classes, training data set.
[4] abbreviates: association of compound sensitivity with DetermaIO classes, test data set.
[5] abbreviates: association of compound sensitivity with DetermaIO classes, training data set.
The mark [6] stands for this setting: correlation of PRISM compound sensitivity with DTIO (DetermaIO), test cell set (188 cell lines).
Where [7] appears, read: correlation of PRISM compound sensitivity with DTIO (DetermaIO), training cell set (371 cell lines).
Setting [8] is: correlation of PRISM compound sensitivity with DTIO, test cell set.
Setting [9] is: correlation of PRISM compound sensitivity with DTIO, training cell set.

Consider `COc1cc(OC)cc(N(CCNC(C)C)c2ccc3ncc(-c4cnn(C)c4)nc3c2)c1` [K84868168], for which the TNBCType train entry in test [1] (setting [3]) is given as “MSL”. The “DTIO Corr test” value in test [2] (setting [4]) came to 0.006092. Besides, the “DTIO Corr train” value in test [2] (setting [5]) was −0.0744.
In the case of `Clc1ccc(C2(c3ccc(-c4cn[nH]c4)cc3)CCNCC2)cc1` [K12040459], the TNBCType train result in test [1] (setting [3]) is “MSL”. Also, the “DTIO Corr test” value in test [2] (setting [4]) was 0.003574. For the same compound, the “DTIO Corr train” value in test [2] (setting [5]) stood at 0.04812.
As for `O=[N+]([O-])c1ccc([As](=O)(O)O)cc1` [nitarsone], in test [1] (test cell set (188 cell lines)), the “IM Corr test” value is given as −0.01836, the “M Corr test” value was determined as 0.02346 and the “MSL Corr test” value is on record as −0.02358. For the same compound, the TNBCType train result in test [1] (subtype (IM, MSL or M) assigned to the compound by negative correlation of PRISM sensitivity with subtype, training cell set (371 cell lines), 101 gene signature) is given as “MSL”. Further, the “DTIO Corr test” value in test [2] (setting [6]) was −0.04129. In test [2] (setting [7]), the “DTIO Corr train” value amounted to 0.03389.
Consider `CCOc1ccc(-n2c([C@@H](C)N(Cc3cccnc3)C(=O)Cc3ccc(OC(F)(F)F)cc3)nc3ncccc3c2=O)cc1` [AMG-487], for which, in test [1] (test cell set (188 cell lines)), the “IM Corr test” value is on record as −0.08583, the “M Corr test” value is 0.04766 and the “MSL Corr test” value is listed as 0.1557. Besides, in test [2] (setting [6]), the “DTIO Corr test” value is recorded as −0.01666. In addition, the “DTIO Corr train” value in test [2] (setting [7]) is recorded as −0.0821.
As for `NC(=O)CCCCn1ccc(NC(N)=NCC(F)(F)F)n1` [ICI-162846], in test [1] (test cell set (188 cell lines)), the “IM Corr test” value is −0.1537, the “M Corr test” value is listed as 0.1647 and the “MSL Corr test” value is 0.0517. In addition, in test [2] (setting [8]), the “DTIO Corr test” value is −0.05711. The “DTIO Corr train” value in test [2] (setting [9]) is given as −0.09255.
Consider `COc1cc2c(NC3CCN(CC4CCCCC4)CC3)nc(N3CCCN(C(C)C)CC3)nc2cc1OCCCN1CCCCC1` [UNC0631], for which, in test [1] (test cell set (188 cell lines)), the “IM Corr test” value is listed as 0.2168, the “M Corr test” value was −0.3256 and the “MSL Corr test” value was −0.09072. The “DTIO Corr test” value in test [2] (setting [8]) was 0.163. For the same compound, the “DTIO Corr train” value in test [2] (setting [9]) is 0.1055. Also, the “DTIO Corr test” value in test [2] (correlation of compound sensitivity with DetermaIO (DTIO), test set) is recorded as 0.163. The “DTIO Corr train” value in test [2] (correlation of compound sensitivity with DetermaIO (DTIO), training set) was determined as 0.1055.
As to `c1cc2c(cc1C1CCCCC1)c1c3n2CCNC3CCC1` (stereo not drawn) [tetrindole], in test [1] (test cell set (188 cell lines)), the “IM Corr test” value is −0.02376, the “M Corr test” value came to 0.06046 and the “MSL Corr test” value is listed as 0.06072. Moreover, the “DTIO Corr test” value in test [2] (setting [8]) is given as −0.04907. Moreover, the “DTIO Corr train” value in test [2] (setting [9]) is given as −0.09692.
For `CCCCC#Cc1nc(NC)c2ncn([C@@H]3O[C@H](CO)[C@@H](O)[C@H]3O)c2n1` [HEMADO], in test [1] (test cell set), the “IM Corr test” value is −0.0662, the “M Corr test” value was found to be 0.05737 and the “MSL Corr test” value is reported as 0.1849. Also, in test [2] (setting [8]), the “DTIO Corr test” value is −0.09381. Moreover, the “DTIO Corr train” value in test [2] (setting [9]) is −0.08651.
As to `Cc1c(-c2ccnn2C)cc(C(=O)NCc2ccc(S(C)(=O)=O)cn2)c(=O)n1-c1cccc(C(F)(F)F)c1` [AZD9668], in test [1] (test cell set), the “IM Corr test” value is 0.06774, the “M Corr test” value is listed as −0.1139 and the “MSL Corr test” value stood at 0.009005. Besides, in test [2] (setting [8]), the “DTIO Corr test” value was −0.00254. In test [2] (setting [9]), the “DTIO Corr train” value turned out to be 0.06934.
Consider `CN[C@H]1CN(c2ccc3c(=O)c(C(=O)O)cn(-c4nccs4)c3n2)C[C@@H]1OC` [voreloxin], for which, in test [1] (test cell set), the “IM Corr test” value turned out to be 0.02919, the “M Corr test” value is on record as −0.09678 and the “MSL Corr test” value was −0.06474. In addition, the TNBCType train result in test [1] (subtype (IM, MSL or M) with which PRISM compound sensitivity is negatively correlated, training cell set, 101 gene signature) is on record as “MSL”. Further, the “DTIO Corr test” value in test [2] (setting [8]) came to 0.01495. Further, the “DTIO Corr train” value in test [2] (setting [9]) is recorded as −0.04486.
As for `COc1ccc(CN2C(=O)C(=O)c3cc(OC(F)(F)F)ccc32)cc1` [VU0238429], in test [1] (test cell set), the “IM Corr test” value is given as 0.04415, the “M Corr test” value is −0.1868 and the “MSL Corr test” value is −0.1511. Moreover, the “DTIO Corr test” value in test [2] (setting [8]) is −0.02333. In addition, the “DTIO Corr train” value in test [2] (setting [9]) is −0.07773.
With `Cc1ccc(C[N+](C)(C)C)o1.[I-]` [5-methylfurmethiodide], in test [1] (test cell set), the “IM Corr test” value is reported as −0.09845, the “M Corr test” value is on record as 0.06783 and the “MSL Corr test” value was 0.0844. In addition, the “DTIO Corr test” value in test [2] (setting [8]) is −0.01347. Besides, the “DTIO Corr train” value in test [2] (setting [9]) is recorded as −0.1413.
